Laboratory results from US8026257B2 (Bristol-Myers Squibb Company, priority 2007, dated 2011).
Where a name gives a salt, the structure may show the parent alone.

Assays:
hSERT = hSERT (Homo sapiens, UniProt P31645); assay: SERT radioligand binding assay ([125I]RTI-55, HEK-hSERT membranes); settings: HEK-293 hSERT membranes, 260 pM [125I]RTI-55, 1 hour at room temperature; read-out: SERT IC50
Protocol: (§1) NK-1 Binding assay. Crude membrane suspensions were prepared for the NK1 and SERT radioligand binding assays from U373 cells or recombinant HEK-293 cells expressing hSERT, respectively. Cells were harvested from T-175 flasks as follows. The medium is removed from the flasks and the cells rinsed with HBSS without Ca and without Mg. The cells are then incubated for 5-10 minutes in 10 mM Tris-Cl, pH 7.5, 5 mM EDTA before the cells are lifted with a combination of pipetting and scraping, as needed. To prepare membranes, the cell suspension is collected into centrifuge bottles and homogenized for 30 seconds with a Polytron homogenizer. The suspension is centrifuged for 30 min@32,000×g, 4° C., then the supernatant is decanted and the pellet resuspended and homogenized in 50 mM Tris-Cl, pH 7.5, 1 mM EDTA for 10 seconds. The suspension is then centrifuged again for 30 min@32,000×g, 4° C. The supernatant is decanted and the pellet resuspended in 50 mM Tris-Cl, pH 7.5, 1 mM EDTA and briefly homogenized. A Bradford assay (Bio-rad) is performed and the membrane preparation diluted to 2 mg/ml with 50 mM Tris-Cl, pH 7.5, 1 mM EDTA. Aliquots are prepared, and then frozen and stored at −80° C.
SERT radioligand binding assay. Compounds are dissolved in 100% DMSO at a concentration 100× the desired highest assay concentration, serially diluted 1:3 in 100% DMSO, and 0.4 ul/well of each solution is dispensed to a Nunc polypropylene, round bottom, 384 well plate. 100% inhibition is defined with 0.4 ul/well of 1 mM fluoxetine (Sigma F-132) dissolved in DMSO. 20 ul/well of a 2× HEK-hSERT membrane preparation (15 ug/ml in 50 mM Tris-Cl, pH 7.5, 120 mM NaCl, 5mM KCl) and 20 ul/well of a 2× radioligand solution (520 pM [^125I]RTI-55 (Perkin-Elmer NEX-272) in 50 mM Tris-Cl, pH 7.5, 120 mM NaCl, 5mM KCl) are added to each well and the reaction incubated for 1 hour at room temperature. The contents of the assay plate are then transferred to a Millipore MultiscreenHTs GF/B filter plate which has been pretreated with 0.5% PEI for at least one hour. The plate is vacuum filtered and washed with 7 washes of 100 ul/well of 50 mM Tris-Cl, pH 7.5, 120 mM NaCl, 5 mM KCl chilled to 4° C. The filtration and washing is completed in less than 90 s. The plates are air-dried overnight, 12 ul/well of MicroScint scintillation fluid added, and the plates counted in a Trilux.
(§2) Data analysis. The raw data are normalized to percent inhibition using control wells defining 0% (DMSO only) and 100% (selective inhibitor) inhibition which are run on each plate. Each plate is run in triplicate, and the concentration response curve thus generated is fit using the four-parameter dose response equation, Y=Bottom+(Top-Bottom)/(1+10^((LogIC50−X)*HillSlope)) in order to determine the IC50 value for each compound. The radioligand concentration chosen for each assay corresponds to the Kd concentration determined through saturation binding analysis for each assay.

NK-1 = molecular target: T1, NK-1 (Homo sapiens, UniProt P25103); assay: NK1 radioligand binding assay ([125I]Substance P, U373 membranes); settings: U373 cell membranes, 200 pM [125I]Substance P, 1 hour at room temperature
T1 construct: 30 ul/well of a 2×U373 membrane preparation
Protocol: as §1
NK1 radioligand binding assay. Compounds are dissolved in 100% DMSO at a concentration 100× the desired highest assay concentration, serially diluted 1:3 in 100% DMSO, and 0.6 ul/well of each solution is dispensed to a Nunc polypropylene, round bottom, 384 well plate. 100% inhibition is defined with 0.6 ul/well of 1 mM L-733,060 (Sigma L-137) dissolved in DMSO. 30 ul/well of a 2×U373 membrane preparation (267 ug/ml in 100 mM Tris-Cl, pH 7.5, 6 mM MgCl2, 0.2% (v/v) Sigma mammalian protease inhibitor cocktail (Sigma P-8340), and 4 ug/ml chymostatin, Sigma C-7268) and 30 ul/well of a 2× radioligand solution (400 pM [^125I]Substance P (Perkin ElmerNEX-190) in 1% (w/v) BSA (Sigma A-2153), 0.1 mg/ml bacitracin, Sigma B-0125) are added to the well and the reaction incubated for 1 hour at room temperature. The contents of the assay plate are then transferred to a Millipore MultiscreenHTS GF/B filter plate which has been pretreated with 0.5% PEI for at least one hour. The plate is vacuum filtered and washed with 7 washes of 100 ul/well of 20 mM Tris-Cl, pH 7.5, 0.5% (w/v) BSA chilled to 4° C. The filtration and washing is completed in less than 90 s. The plates are air-dried overnight, 12 ul/well of MicroScint scintillation fluid added, and the plates counted in a Trilux.
as §2

hSERT, sequence (P31645 whole entry): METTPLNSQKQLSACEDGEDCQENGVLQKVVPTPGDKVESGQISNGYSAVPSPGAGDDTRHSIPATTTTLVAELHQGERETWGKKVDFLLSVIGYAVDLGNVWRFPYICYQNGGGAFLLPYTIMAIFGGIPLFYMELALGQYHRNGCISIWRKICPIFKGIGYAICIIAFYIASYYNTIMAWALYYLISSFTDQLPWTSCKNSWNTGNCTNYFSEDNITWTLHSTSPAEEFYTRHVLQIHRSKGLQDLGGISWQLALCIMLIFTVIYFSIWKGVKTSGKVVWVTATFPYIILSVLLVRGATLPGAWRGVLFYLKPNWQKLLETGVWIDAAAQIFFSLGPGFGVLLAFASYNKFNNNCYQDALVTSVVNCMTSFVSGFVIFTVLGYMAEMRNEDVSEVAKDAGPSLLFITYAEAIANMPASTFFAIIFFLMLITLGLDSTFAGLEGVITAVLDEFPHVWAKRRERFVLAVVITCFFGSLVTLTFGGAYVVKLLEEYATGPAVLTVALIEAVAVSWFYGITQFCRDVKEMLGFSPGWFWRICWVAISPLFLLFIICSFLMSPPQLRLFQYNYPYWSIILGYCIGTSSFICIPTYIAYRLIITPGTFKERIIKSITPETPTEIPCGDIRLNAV
T1 sequence (P25103 whole entry): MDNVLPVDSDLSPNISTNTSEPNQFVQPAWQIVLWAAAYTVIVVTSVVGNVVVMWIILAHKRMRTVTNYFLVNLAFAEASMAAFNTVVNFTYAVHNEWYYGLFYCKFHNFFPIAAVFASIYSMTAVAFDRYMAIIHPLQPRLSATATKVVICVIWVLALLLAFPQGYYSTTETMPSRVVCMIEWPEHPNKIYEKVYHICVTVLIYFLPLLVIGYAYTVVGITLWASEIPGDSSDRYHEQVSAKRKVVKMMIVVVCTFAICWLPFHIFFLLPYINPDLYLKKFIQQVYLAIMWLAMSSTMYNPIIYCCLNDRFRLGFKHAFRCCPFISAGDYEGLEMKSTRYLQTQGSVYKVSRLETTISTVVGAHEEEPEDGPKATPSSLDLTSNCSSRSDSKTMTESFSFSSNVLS

Row | SMILES | IC50 (hSERT) | IC50 (NK-1)
1 | FC(F)(F)c1cc(COCC2(c3ccccc3)CCNCC2)c2[nH]nc(Br)c2c1 [Example 36, 3-Bromo-7-(((4-phenylpiperidin-4-yl)methoxy)methyl)-5-(trifluoromethyl)-1H-indazole] | 0.01 to 100 nM | 0.01 to 100 nM
2 | CC(OCC1(c2ccc(F)cc2)CCNCC1)c1cc(C(F)(F)F)cc2cn[nH]c12 (single isomer, unassigned) [Example 22, 7-(1-((4-(4-Fluorophenyl)piperidin-4-yl)methoxy)ethyl)-5-(trifluoromethyl)-1H-indazole] | 0.01 to 100 nM | 100 to 300 nM
3 | C[C@@H](OCC1(c2ccccc2)CCN(C)CC1)c1cc(Cl)cc2c(Cl)n[nH]c12 [Example 120, (R)-3,5-dichloro-7-(1-((1-methyl-4-phenylpiperidin-4yl)methoxy)ethyl)-1H-indazole] | 0.01 to 100 nM | 0.01 to 100 nM
4 | Cc1n[nH]c2c(COCC3(c4ccccc4)CCNCC3)cc(C(F)(F)F)cc12 [Example 37, 3-Methyl-7-(((4-phenylpiperidin-4-yl)methoxy)methyl)-5-(trifluoromethyl)-1H-indazole] | 0.01 to 100 nM | 0.01 to 100 nM
5 | FC(F)(F)c1cc(COCC2(c3ccccc3)CCNCC2)c2[nH]ncc2c1 [Example 9, 7-(((4-Phenylpiperidin-4-yl)methoxy)methyl)-5-(trifluoromethyl)-1H-indazole] | 0.01 to 100 nM | 0.01 to 100 nM
6 | CC(OCC1(c2ccc(F)cc2)CCN(C)CC1)c1cc(N(C)C)cc2cn[nH]c12 (stereo not drawn) [Example 51, 7-(1-((4-(4-Fluorophenyl)-1-methylpiperidin-4-yl)methoxy)ethyl)-N,N-dimethyl-1H-indazol-5-amine] | 0.01 to 100 nM | 0.01 to 100 nM
7 | CC(OCC1(c2ccc(F)cc2)CCN(C)CC1)c1cc(Cl)cc2cn(C3CC3)nc12 (racemic) [Example 58, (±)-5-Chloro-2-cyclopropyl-7-(1-((4-(4-fluorophenyl)-1-methylpiperidin-4-yl)methoxy)ethyl)-2H-indazole] | 0.01 to 100 nM | 0.01 to 100 nM
8 | C[C@@H](OCC1(c2ccc(F)cc2)CCN(C)CC1)c1cc(Cl)cc2cn(CC3CC3)nc12 [Example 105, (R)-5-chloro-2-(cyclopropylmethyl)-7-(1-((4-(4-fluorophenyl)-1methylpiperidin-4-yl)methoxy)ethyl)-2H-indazole] | 0.01 to 100 nM | 0.01 to 100 nM
9 | Brc1cc(COCC2(c3ccccc3)CCNCC2)c2[nH]ncc2c1 [Example 2, 5-Bromo-7-(((4-phenylpiperidin-4-yl)methoxy)methyl)-1H-indazole] | 0.01 to 100 nM | 0.01 to 100 nM
10 | CN1CCC(COCc2cc(C(F)(F)F)cc3cc[nH]c23)(c2ccccc2)CC1 [Example 66, 7-(((1-Methyl-4-phenylpiperidin-4-yl)methoxy)methyl)-5-(trifluoromethyl)-1H-indole] | 0.01 to 100 nM | 0.01 to 100 nM
11 | Cc1n[nH]c2c([C@@H](C)OCC3(c4ccc(F)cc4)CCN(C)CC3)cc(Cl)cc12 [Example 103, (R)-5-Chloro-7-(1-((4-(4-fluorophenyl)-1-methylpiperidin-4-yl)methoxy)ethyl)-3-methyl-1H-indazole] | 0.01 to 100 nM | 0.01 to 100 nM
12 | CN1CCC(COCc2cc(C(F)(F)F)cc3ccn(C)c23)(c2ccccc2)CC1 [Example 67, 1-Methyl-7-(((1-methyl-4-phenylpiperidin-4-yl)methoxy)methyl)-5-(trifluoromethyl)-1H-indole] | 0.01 to 100 nM | 0.01 to 100 nM
13 | CC(OCC1(c2ccc(F)cc2)CCNCC1)c1cc(C(F)(F)F)cc2cnn(C)c12 (single isomer, unassigned) [Example 30, 7-(1-((4-(4-Fluorophenyl)piperidin-4-yl)methoxy)ethyl)-1-methyl-5-(trifluoromethyl)-1H-indazole] | 0.01 to 100 nM | 0.01 to 100 nM
14 | CC(OCC1(c2ccc(F)cc2)CCN(C)CC1)c1cc(C#N)cc2cn[nH]c12 (racemic) [Example 48, (±)-7-(1-((4-(4-Fluorophenyl)-1-methylpiperidin-4-yl)methoxy)ethyl)-1H-indazole-5-carbonitrile] | 0.01 to 100 nM | 0.01 to 100 nM
15 | CC(OCC1(c2ccc(F)cc2)CCN(C)CC1)c1cc(Cl)cc2[nH]c(=O)n(C)c12 (stereo not drawn) [Example 97, 5-Chloro-7-(1-((4-(4-fluorophenyl)-1-methylpiperidin-4-yl)methoxy)ethyl)-1-methyl-1H-benzo[d]imidazol-2(3H)-one trifluoroacetic acid salt] | 0.01 to 100 nM | 100 to 300 nM
16 | CC(OCC1(c2ccc(F)cc2)CCN(C)CC1)c1cc(C(F)(F)F)cc2cn[nH]c12 (single isomer, unassigned) [Example 25, 7-(1-((4-(4-Fluorophenyl)-1-methylpiperidin-4-yl)methoxy)ethyl)-5-(trifluoromethyl)-1H-indazole] | 0.01 to 100 nM | 0.01 to 100 nM
17 | CCC(OCC1(c2ccc(F)cc2)CCNCC1)c1cc(Cl)cc2cn[nH]c12 (stereo not drawn) [Example 114, 5-chloro-7-(1-((4-(4-fluorophenyl)piperidin-4-yl)methoxy)propyl)-1H-indazole] | 0.01 to 100 nM | 0.01 to 100 nM
18 | CC(OCC1(c2ccc(F)cc2)CCN(C)CC1)c1cc(Cl)cc2c(C3CC3)n[nH]c12 (racemic) [Example 56, (±)-5-Chloro-3-cyclopropyl-7-(1-((4-(4-fluorophenyl)-1-methylpiperidin-4-yl)methoxy)ethyl)-1H-indazole] | 0.01 to 100 nM | 0.01 to 100 nM
19 | CC(OCC1(c2ccc(F)cc2)CCN(C)CC1)c1cc(C(F)(F)F)cc2c1NC(=O)C2 (racemic) [Example 123, (±)-7-(1-((4-(4-fluorophenyl)-1-methylpiperidin-4-yl)methoxy)ethyl)-5-(trifluoromethyl)indolin-2-one] | 0.01 to 100 nM | 0.01 to 100 nM
20 | Cc1cc(C(C)OCC2(c3ccc(F)cc3)CCN(C)CC2)c2nn(CC3CC3)cc2c1 (racemic) [Example 63, (±)-2-(Cyclopropylmethyl)-7-(1-((4-(4-fluorophenyl)-1-methylpiperidin-4-yl)methoxy)ethyl)-5-methyl-2H-indazole] | 0.01 to 100 nM | 0.01 to 100 nM
21 | Cn1ncc2cc(-c3ccc(C#N)cc3)cc(COCC3(c4ccccc4)CCNCC3)c21 [Example 4, 4-(1-Methyl-7-(((4-phenylpiperidin-4-yl)methoxy)methyl)-1H-indazol-5-yl)benzonitrile] | 0.01 to 100 nM | 100 to 300 nM
22 | CC(OCC1(c2ccccc2)CCNCC1)c1cc(Cl)cc2cnn(C)c12 (racemic) [Example 40, (±)-5-Chloro-1-methyl-7-(1-((4-phenylpiperidin-4-yl)methoxy)ethyl)-1H-indazole] | 0.01 to 100 nM | 0.01 to 100 nM
23 | C[C@@H](OCC1(c2ccc(F)cc2)CCN(C)CC1)c1cc(Cl)cc2c(Cl)n(CC(F)(F)F)nc12 [Example 117, (R)-3,5-dichloro-7-(1-((4-(4-fluorophenyl-1-methyl)piperidine-4-yl)methoxy)ethyl)-2-(2,2,2-trifluoroethyl)-1H-indazole] | – | 0.01 to 100 nM
